PMC6764212 (ACS Central Science, 2019)
Read-outs that look alike come from different tables or passages of the source.

Columns and labels:
GABAAR(α1/β3/γ2) [1] = biological target: T1, GABAAR(α1/β3/γ2) (Homo sapiens, UniProt P14867+P18507+P28472); assay: Ligand detection / high-throughput screening by fluorescence change ratio; assay type: binding; settings: for assignment of hit compound from the screening: third and fourth screening, LOPAC1280, 10 μM
GABAAR(α1/β3/γ2) [2] = biological target: T1, GABAAR(α1/β3/γ2); assay: Dissociation constant of PAM at fixed 10 μM GABA; assay type: binding
GABAAR(α1/β3/γ2) [3] = biological target: T1, GABAAR(α1/β3/γ2); assay: Whole-cell patch-clamp electrophysiology in GABAAR-transfected HEK293T cells; assay type: cell-based; settings: for chloride currents in the absence of GABA at high concentrations: 100 μM for CGP-7930 and CGP-13501, 25 μM for vinpocetine, Retro-2 and YC-1
GABAARs = settings: cited from earlier work
GABAAR(α1/β3/γ2) [4] = biological target: T1, GABAAR(α1/β3/γ2); assay type: binding

Compound | assignment of hit compound from the screening (GABAAR(α1/β3/γ2) [1]) | Kd (GABAAR(α1/β3/γ2) [2]) [nM] | fluorescence change (ΔF/F0) upon ligand addition in the absence of GABA (GABAAR(α1/β3/γ2) [1]) | fluorescence change (ΔF/F0) upon ligand addition in the presence of GABA (GABAAR(α1/β3/γ2) [1]) | other results
CC1=C(C)C(=O)C(CCCCC#CCCCC#CCO)=C(C)C1=O [AA-861] | PAM candidates | – | – | – | –
CC(C)(CO)Cc1cc(C(C)(C)C)c(O)c(C(C)(C)C)c1 [CGP-7930, 2,6-Di-tert-butyl-4-(3-hydroxy-2,2-dimethyl-propyl)-phenol] | PAM candidates | 13100 | – | – | chloride currents in the absence of GABA at high concentrations (GABAAR(α1/β3/γ2) [3]; no GABA): increased the chloride currents
CCOC(=O)c1cncn1[C@H](C)c1ccccc1 [etomidate] | – | – | negligible fluorescence change | pronounced fluorescent decrease | Kd (GABAARs; read-out: Kd of etomidate previously reported using live cells): 1800 nM
COc1ccc(-c2ccc(=N)n(CCCC(=O)O)n2)cc1 [gabazine] | potential orthosteric ligands | – | significant decrease | significant decrease | Kd (GABAAR(α1/β3/γ2) [4]): 214 nM; concentration at which the fluorescence decrease reached saturation (GABAAR(α1/β3/γ2) [4]; 100 nM Gzn-OG, CLSM image): approximately 10 μM
COc1ccc2c(c1OC)C(=O)O[C@@H]2[C@H]1c2cc3c(cc2CCN1C)OCO3 [hydrastine] | potential orthosteric ligands | – | – | – | –
CC(C)c1cccc(C(C)C)c1O [propofol] | – | 5600 | negligible fluorescence change | pronounced fluorescent decrease | Kd (GABAARs; read-out: Kd of propofol previously reported using live cells): 1900 nM
CCOC(=O)C1=C[C@]2(CC)CCCN3CCc4c(n1c1ccccc41)[C@@H]32 [vinpocetine] | PAM candidates | 1400 | – | – | chloride currents in the absence of GABA at high concentrations (GABAAR(α1/β3/γ2) [3]; no GABA): increased the chloride currents; effect on GABA-induced chloride currents (GABAAR(α1/β3/γ2) [3]; [compound] = 3 μM, [GABA] = 30 μM, −60 mV): reversibly enhanced; direct activation of GABAARs at low concentrations (GABAAR(α1/β3/γ2) [3]; low concentrations (3 μM), no GABA): did not induce any direct activation of GABAARs
Cc1ccc(-c2nc3ccc(C)cn3c2CC(=O)N(C)C)cc1 [zolpidem] | – | – | negligible fluorescence change | pronounced fluorescent decrease | –
picrotoxin | – | – | no effect on the fluorescence intensity | no effect on the fluorescence intensity | –
